Reference: patent publication US6875758B2, “Method of treating hyperlipidemic and hyperglycemic conditions in mammals using pregnadienols and pregnadienones” (Council of Scientific & Industrial Research, priority 1999, dated 2005)
Several values for one entry are separate records, joined by “and”; a condition that tells them apart may be missing. Identical values can stand only once.

What was measured:
[1] = system: Triton treated rats; test: Cholesterol lowering in Triton treated rats; type: in vivo, Charles Foster rats; details: Rattus norvegicus, ip; 50 mg/kg i.p.; read-out: % Change S. Chol.
Text: The primary hypolipidemic effect of these compounds was established in triton induced hyperlipidemia in Charles Foster rats. […] The cholesterol lowering effect of some representative compounds of pregrenadienols and pregrenadienones as compared to clofibrate and gugulsterone in triton treated Charles Foster rats is described in Table-2.

[2] = system: hyperlipidemic rats (high fat diet); test: Hypolipidemic activity in diet induced hyperlipidemic rats; type: in vivo; details: for LDL-Cholesterol: calculated
Method: Twenty three normal male rats average weight 110-120 g were taken for study and were divided into four groups. Group l: animals received special diet and 3β-hydroxypregna-5,16-dien-20-one (2) 50 mg/kg p.o. in 1% gum acacia. Group II: animals received 3β-hydroxypregna-5,16-dien-20-one (2), 100 mg/kg p.o. in 1% gum acacia and special diet. Group III: animals received special fat diet and 1% gum acacia and served as control. Group IV: animals were fed with stock diet and served as normal control. All animals were sacrificed at the end of 36 days. Blood was drawn from the tail at 10 days and from the aorta at the time of sacrifice for estimation of serum cholesterol, triglycerides and HDL-cholesterol. LDL-cholesterol was calculated as described. [Roschlau, P. In: Methods of Enzymatic Analysis 4th ed., H. U. Bergmeyer, Ed (Academic Press, New York) 1975 p 1890; Wahlefield, W. A. In: Methods of Enzymatic Analysis, 4th ed.; H. U. Bergmeyer, Ed. (Academic Press, New York) 1974 p 1831.]

[3] = system: hyperlipidemic rabbits; test: Hypolipidemic effect in hyperlipidemic rabbits (120 days experiment); type: in vivo; parameters: Serum Triglycerides: unit not given here; details: 100 mg/kg
[4] = system: hyperlipidemic male albino rabbits; test: Hypolipidemic activity in cholesterol fed hyperlipidemic rabbits (90 days); type: in vivo
Method: Effect of 3β-Hydroxypregna-5,16-dien-20-one (2) was studied on hypercholesterolemic albino rabbits. Twelve male albino rabbits (approx 1.5-2 kg) on a stock diet were made hyperlipidemic by feeding daily cholesterol 0.5 g/kg in 2 ml of groundnut oil for 45 days and then blood was drawn from the marginal vein in the ear of rabbits for serum cholesterol and triglycerides estimation.
Two controlled experiments were carried out for a period of three months. In one set of experiments, the control group received 0.5 g/kg of cholesterol for 90 days and 3β-Hydroxypregna-5,16-dien-20-one (2) in dose of 100 mg/kg and 50 mg/kg while in control group (given only cholesterol) a massive rise of serum cholesterol and triglycerides were seen after 90 days, the addition of 3β-Hydroxypregna-5,16dien-20-one (2) at 50 and 100 mg/kg doses kept the rise well under control. The percentage decrease at 100 mg dose was 28% at 30 days to 52% at 90 days for cholesterol and 45 to 81% for triglycerides. In the 50 mg/kg dose group the decrease percentage ranged from 40% at 30 days to 50% at 90 days for cholesterol and 45% at 30 days to 75% at 90 days for triglyceride (Table6)

[5] = Hydroxy (OH) radical formation in nonenzymatic system (Fe2+, ascorbate, H2O2, deoxyribose); type: biochemical
[6] = 50 mg/kg + cholesterol 0.5 g/kg, day 30
[7] = 50 mg/kg + cholesterol 0.5 g/kg, day 60
[8] = 50 mg/kg + cholesterol 0.5 g/kg, day 90
[9] = 100 mg/kg + cholesterol 0.5 g/kg, day 30
[10] = 100 mg/kg + cholesterol 0.5 g/kg, day 60
[11] = 100 mg/kg + cholesterol 0.5 g/kg, day 90

SMILES: CC(=O)C1=CC[C@H]2[C@@H]3CC=C4C[C@@H](O)CC[C@]4(C)[C@H]3CC[C@]12C [Compound 2, 3β-Hydroxypregna-5,16-dien-20-one]
- change in vivo at 50 mg/kg [1]: -46%
- HDL-Cholesterol ([2]; 50 mg/kg + HFD, Day 0): 34.8 ± 5.8 mg %
- LDL-Cholesterol ([2]; 50 mg/kg + HFD, Day 0): 24.5 ± 14.2 mg %
- HDL-Cholesterol ([2]; 50 mg/kg + HFD, Day 36): 37.57 ± 2.8 mg %
- HDL-Cholesterol % Change ([2]; 50 mg/kg + HFD, Day 36): 181%
- LDL-Cholesterol ([2]; 50 mg/kg + HFD, Day 36): 123.87 ± 14.0 mg %
- Serum Cholesterol ([2]; 50 mg/kg p.o. + HFD, day 0): 69.1 ± 9.9 mg %
- Serum Triglycerides ([2]; 50 mg/kg p.o. + HFD, day 0): 48.8 ± 7.0 mg %
- Serum Cholesterol ([2]; 50 mg/kg p.o. + HFD, day 10): 212.4 ± 23.8 mg %
- Serum Cholesterol % Decrease (compared to group III, HFD) ([2]; 50 mg/kg p.o. + HFD, day 10): 16%
- Serum Cholesterol ([2]; 50 mg/kg p.o. + HFD, day 36): 165 ± 26.7 mg %
- Serum Cholesterol % Decrease (compared to group III, HFD) ([2]; 50 mg/kg p.o. + HFD, day 36): 31%
- Serum Triglycerides ([2]; 50 mg/kg p.o. + HFD, day 36): 61.5 ± 10.5 mg %
- Serum Triglycerides % Decrease (compared to group III, HFD) ([2]; 50 mg/kg p.o. + HFD, day 36): 55%
- HDL-Cholesterol ([2]; 100 mg/kg + HFD, Day 0): 43.4 ± 8.3 mg %
- LDL-Cholesterol ([2]; 100 mg/kg + HFD, Day 0): 10.02 ± 8.5 mg %
- HDL-Cholesterol ([2]; 100 mg/kg + HFD, Day 36): 47.2 ± 3.7 mg %
- HDL-Cholesterol % Change ([2]; 100 mg/kg + HFD, Day 36): 161%
- LDL-Cholesterol ([2]; 100 mg/kg + HFD, Day 36): 48.64 ± 5.1 mg %
- Serum Cholesterol ([2]; 100 mg/kg p.o. + HFD, day 0): 60.8 ± 10.3 mg %
- Serum Triglycerides ([2]; 100 mg/kg p.o. + HFD, day 0): 50 ± 7.1 mg %
- Serum Cholesterol ([2]; 100 mg/kg p.o. + HFD, day 10): 145.5 ± 10.6 mg %
- Serum Cholesterol % Decrease (compared to group III, HFD) ([2]; 100 mg/kg p.o. + HFD, day 10): 48%
- Serum Cholesterol ([2]; 100 mg/kg p.o. + HFD, day 36): 106.4 ± 4.6 mg %
- Serum Cholesterol % Decrease (compared to group III, HFD) ([2]; 100 mg/kg p.o. + HFD, day 36): 59%
- Serum Triglycerides ([2]; 100 mg/kg p.o. + HFD, day 36): 53.0 ± 7.5 mg %
- Serum Triglycerides % Decrease (compared to group III, HFD) ([2]; 100 mg/kg p.o. + HFD, day 36): 62%
- Serum Cholesterol % Decrease (Compared with HFD) [3]: 74%
- Serum Triglycerides % Decrease (Compared with HFD) [3]: 61%
- Serum Cholesterol ([3]; HFD): 350.0 ± 28.1 mg/dL
- Serum Triglycerides ([3]; HFD): 74.2 ± 10.3
- S. Cholesterol [4, 6]: 190.5 mg %
- S. Triglycerides [4, 6]: 79.5 mg %
- S. Cholesterol [4, 7]: 305.5 mg %
- S. Triglycerides [4, 7]: 67.0 mg %
- S. Cholesterol [4, 8]: 660.3 mg %
- S. Triglycerides [4, 8]: 56.5 mg %
- S. Cholesterol % Decrease vs cholesterol control ([4]; 50 mg/kg, day 30): 40%
- S. Triglycerides % Decrease vs cholesterol control ([4]; 50 mg/kg, day 30): 45%
- S. Cholesterol % Decrease vs cholesterol control ([4]; 50 mg/kg, day 60): 43%
- S. Triglycerides % Decrease vs cholesterol control ([4]; 50 mg/kg, day 60): 64%
- S. Cholesterol % Decrease vs cholesterol control ([4]; 50 mg/kg, day 90): 50% and 51%
- S. Triglycerides % Decrease vs cholesterol control ([4]; 50 mg/kg, day 90): 75% and 76%
- S. Cholesterol [4, 9]: 213.3 mg %
- S. Triglycerides [4, 9]: 79.0 mg %
- S. Cholesterol [4, 10]: 309.3 mg %
- S. Triglycerides [4, 10]: 54.0 mg %
- S. Cholesterol [4, 11]: 633.7 mg %
- S. Triglycerides [4, 11]: 44.2 mg %
- S. Cholesterol % Decrease vs cholesterol control ([4]; 100 mg/kg, day 30): 28%
- S. Triglycerides % Decrease vs cholesterol control ([4]; 100 mg/kg, day 30): 45% and 46%
- S. Cholesterol % Decrease vs cholesterol control ([4]; 100 mg/kg, day 60): 42%
- S. Triglycerides % Decrease vs cholesterol control ([4]; 100 mg/kg, day 60): 64%
- S. Cholesterol % Decrease vs cholesterol control ([4]; 100 mg/kg, day 90): 52% and 53%
- S. Triglycerides % Decrease vs cholesterol control ([4]; 100 mg/kg, day 90): 81%
- generation of OH radical (in words) [5]: inhibits the generation of OH radical in concentration dependent manner
- % inhibition of OH radical formation ([5]; 5 μmol/ml): (28) %
- OH radical formation ([5]; 5 μmol/ml): 65.0 ± 5.4 nmol MDA/hr
- % inhibition of OH radical formation ([5]; 10 μmol/ml): (42) %
- OH radical formation ([5]; 10 μmol/ml): 52.8 ± 4.2 nmol MDA/hr
- % inhibition of OH radical formation ([5]; 20 μmol/ml): (74) %
- OH radical formation ([5]; 20 μmol/ml): 23.3 ± 1.8 nmol MDA/hr
- % inhibition of OH radical formation ([5]; 30 μmol/ml): (87) %
- OH radical formation ([5]; 30 μmol/ml): 11.7 ± 1.3 nmol MDA/hr
- % inhibition of OH radical formation ([5]; 40 μmol/ml): (88) %
- OH radical formation ([5]; 40 μmol/ml): 10.4 ± 2.0 nmol MDA/hr
- % inhibition of OH radical formation ([5]; 50 μmol/ml): (90) %
- OH radical formation ([5]; 50 μmol/ml): 9.9 ± 0.8 nmol MDA/hr
